Laboratory results from US10973925B2, “Methods and compositions for theranostic nanoparticles” (University of Central Florida Research Foundation, Inc., priority 2015, dated 2021).
“Also recorded” adds a separate entry of the source. One block for each molecule: values may come before it. Residues, ends and D or L forms follow the SMILES beside them.

Tests used:
cells = details: cited from earlier work
normal cells = experiment: CT20p in normal cells / control epithelial cell line; type: cell-based
Procedure: (§1) Recently, a mitotoxic peptide that kills cancer cells was discovered. […] Cell death (anoikis), indicated by membrane asymmetry, was detectable in cancer cells by 48 hours (FIG. 18J). […] These findings indicate that CT20p impairs cancer cell invasiveness through its actions on mitochondria and the cytoskeleton, which causes detachment-induced cell death.

cancer cells [1] = details: expression or introduction of CT20p in cancer cells; cited from earlier work
PSMA(+) PC3 tumors = details: two week experiment (FIG. 22D)
Procedure: FIG. 22A depicts an image of mice that were injected subcutaneously (SC) with PSMA(+) (right flank) or PSMA(−) (left flank) PCa tumor cells. Upon tumor detection (˜2 weeks), the mice were injected intravenously (IV) with PEG-(FOL)-HBPE-NPs (2 mg/kg/dose) containing a near IR dye (FIG. 22A) or CT20p (FIG. 22B). Mice were imaged after 24 hours (FIG. 22A) or sacrificed after 10 days (FIG. 22B). […] FIG. 22D is a graph that summarizes a two week experiment in which mice (n=5) bearing PSMA+ tumors (SC) were IV injected once per week with FOL-HBPE-NPs (2 mg/kg/dose) that were empty or had CT20p and were compared to COOH-NPs (untargeted) with CT20p or FOL-targeted doxorubicin (DOX). *p<0.05. The mice were euthanized before the tumors ulcerated.

cancer cells [2] = experiment: CT20p activities in cancer cells (timeline); type: cell-based
Procedure: FIGS. 18A-18J illustrate a timeline of CT20p activities in cancer cells. […] Gates are N, necrotic; V, viable; A, apoptotic. Percentages are V (black) and N+A (red). FIG. 18E is a graph showing that by 6 hours, cells detach from the substrate (fibronectin). Such cell detachment was measured using a crystal violet adhesion assay.
as §1

[3] = tested on: PSMA-expressing PCa cells; experiment: Effects of CT20p upon cell adhesion and anoikis; type: cell-based
Procedure: An essential activity that promotes the invasiveness of metastatic cells is rearrangement of the cytoskeleton, which can be linked to integrin signaling. […] At selected time points, PCa cells (Table 1) as well as control cells were treated with Mitotracker Red to visualize mitochondria and then were fixed on coverslips for staining with Alexa Fluor™ 647 phalloidin, a high-affinity F-actin probe, or Deoxyribonuclease I, Alexa Fluor™ 488-conjugate for G-actin for imaging by confocal microscopy (Zeiss 710). To examine how integrin signaling was impaired by CT20p, the surface expression of integrins detected with fluorescence-conjugated antibodies (β1, CD29 and αVβ3, CD51/61) by flow cytometry, was examined. Levels of additional integrins (αV or α5) were also evaluated by immunoblotting cell lysates. To determine whether cell detachment and the reduction in integrin levels could activate anoikis, the CytoSelect® 96-well Anoikis Assay Kit was used and standard assays of cell migration and invasion were performed. Additionally, to test the effects of CT20p under conditions of directed migration, the cells described above were treated with conditioned media from 3T3 cells, which contains chemotactic factors.

[4] = tested on: PCa primary tumors and metastatic lesions
Procedure: Results were compared with those obtained with free doxorubicin or folate-ss-doxorubicin. Again, the lead HBPE-NP preparations from Experiment 2 were used. Male SCID mice were used that are either intact or castrated and treated with testosterone (SC) or DHT pellet. SCID mice were injected SC with luciferase expressing LNCaP cells and, upon tumor growth, D-luciferin was injected prior to imaging (IVIS, Perkin Elmer). In all experiments, NPs without targeting ligand or without CT20p were used as controls. Mice were injected once every week, for 3-4 weeks, with control DFO-HBPE-NPs or PSMA-targeted DFO-HBPE(CT20p)-NPs. Tumor growth was monitored by measuring the tumor size using a caliper or by ultrasound as well as by bio-luminescence as described above. In addition, blood was collected for weekly PSA measurements (with a commercially available ELISA), using the value prior to therapy as a baseline. The tumors were followed for 6 weeks or until reaching 1.5 cm in size (whichever came first). At experimental endpoints, remaining tumor tissue, as well as liver, spleen, kidney, lungs and brain, were collected and examined by immunohistochemistry (using J591 to identify PSMA) and also qRT-PCR and quantitative Western Blot for PSMA levels in the tumor to correlates with response to the targeted therapy. […]

macrophages (RAW cells) = experiment: Cell death of non-transformed cells (Sytox analysis); type: cell-based
Procedure: FIGS. 21A-21J show dose- (FIGS. 21A, 21C) and time- (FIGS. 21D, 21F) dependent cytotoxicity assay of PCa cells treated with Folate.HBPE(Dil)-NPs. PCa Cells: LNCap (FIGS. 21A, 21D), PSMA(+) PC3 (FIGS. 21B, 21E) and PC3 (FIGS. 21C, 21F). […] V, viable; N, necrotic, A, apoptotic.
To study any effect that folate-HBPE (CT20p)-NPs may have on non-transformed cells, macrophages (RAW cells) were incubated with the folate-HBPE(CT20p)-NPs and cell death was assessed.

[5] = tested on: PSMA positive LNCaP cells; details: LNCaP cell viability
Excerpt: The amount of encapsulated abiraterone was estimated following a reported protocol and defined as encapsulation efficiency.

[6] = by 24 hours post-CT20p treatment

SMILES: CC[C@H](C)[C@H](NC(=O)[C@@H](NC(=O)[C@H](CC(C)C)NC(=O)[C@H](CO)NC(=O)[C@H](C)NC(=O)[C@@H](NC(=O)[C@H](CC(C)C)NC(=O)[C@@H](NC(=O)CNC(=O)[C@H](C)NC(=O)[C@@H](NC(=O)[C@H](Cc1ccccc1)NC(=O)[C@@H](NC(=O)[C@@H](NC(=O)[C@@H](NC(C)=O)C(C)C)[C@@H](C)O)[C@@H](C)CC)C(C)C)C(C)C)[C@@H](C)O)[C@@H](C)O)C(=O)N[C@@H](Cc1c[nH]c2ccccc12)C(=O)N[C@@H](CCCCN)C(=O)N[C@@H](CCCCN)C(=O)N[C@@H](CCSC)C(=O)NCC(N)=O [CT20p] (Ac-VTIFVAGVLTASLTIWKKMG-NH2)
- uptake by cells (cells): not taken up by cells
- mitochondrial localization, autophagosome formation or cell death (normal cells; control epithelial cell line): not observed
- cell death (normal cells; normal cells (FIG. 19C)): minimal cell death was detected
- block of cell death by Bcl-2 overexpression, Bax deficiency or caspase inhibition (cancer cells [1]): minimally blocked it
- efficacy in PSMA+ tumors (PSMA(+) PC3 tumors): more effective than drugs like Doxoyrubucin
- concentration range in which the peptide works (cancer cells [2]): nanomolar range
- ROS production (cancer cells [2]; [6]): increased ROS production
- autophagy (cancer cells [2]; [6]): induction of autophagy
- caspases (cancer cells [2]; [6]): activation of caspases
- mitochondrial membrane effect (cancer cells [2]; cancer cells): hyperpolarization of the mitochondrial membrane and fusion-like aggregation; also recorded: mitochondrial membranes hyperpolarize and fuse
- β1 integrin surface level (cancer cells [2]; prior to cell detachment): decreased surface expression of β1 integrin; also recorded: membrane levels of β1 integrin decreased
- co-localization of peptide with mitochondria (cancer cells [2]; ˜3.4 nM CT20p in NPs, cancer cells): co-localization of the peptide (red) with mitochondria (green) was detected
- F-actin and integrin signaling [3]: loss of F-actin and reduced integrin signaling

SMILES: COc1cccc2c1C(=O)c1c(O)c3c(c(O)c1C2=O)C[C@@](O)(C(=O)CO)C[C@@H]3O[C@H]1C[C@H](N)[C@H](O)[C@H](C)O1 [Doxorubicin]
- tumor regression ([4]; also castration and hormone signaling conditions): Tumor regression also occurs
- off-target toxicity ([4]; mouse, in vivo): off-target toxicity was observed
- toxicity to macrophages (macrophages (RAW cells)): death of macrophages was observed

- IC50 [5]: 2550 nM
SMILES: C[C@]12CC[C@H](O)CC1=CC[C@@H]1[C@@H]2CC[C@]2(C)C(c3cccnc3)=CC[C@@H]12 [abiraterone]
